Tests used:
Experiment in all cases: maximum observed lethal fraction; higher = more cell death
[1] = system: U2OS PTBP1-KO
[2] = system: U2OS BCL2L12-KO
[3] = system: U2OS BAX/BAK1 DKO
[4] = system: U2OS
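Note: FLICK assay: SYTOX Green fluorescence of dead cells tracked over time after drugging in 96-well plates, with total cell counts taken from Triton X-100 lysed wells.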

CC1(C)CCC(CN2CCN(c3ccc(C(=O)NS(=O)(=O)c4ccc(NCC5CCOCC5)c([N+](=O)[O-])c4)c(Oc4cnc5[nH]ccc5c4)c3)CC2)=C(c2ccc(Cl)cc2)C1 [ABT-199]
maximum observed lethal fraction
Settings	0.1 µM	0.316 µM	1 µM	3.16 µM	10 µM	31.6 µM	100 µM
[1]	0.0644	0.0635	0.0617	0.0671	0.0741	0.211	0.517
[2]	0.0643	0.0609	0.063	0.0712	0.114	0.39	0.692
[3]	0.0501	0.0536	0.0531	0.0558	0.0561	0.0846	0.0728
[4]	0.0502	0.0518	0.0546	0.0609	0.0939	0.239	0.52

CC1(C)CCC(c2ccc(Cl)cc2)=C(CN2CCN(c3ccc(C(=O)NS(=O)(=O)c4ccc(N[C@H](CCN5CCOCC5)CSc5ccccc5)c(S(=O)(=O)C(F)(F)F)c4)cc3)CC2)C1 [ABT-263]
maximum observed lethal fraction
Settings	0.1 µM	0.316 µM	1 µM	3.16 µM	10 µM	31.6 µM	100 µM
[1]	0.0713	0.0786	0.0982	0.131	0.192	0.771	1
[2]	0.0718	0.0885	0.121	0.225	0.26	0.821	1
[3]	0.0556	0.0535	0.0545	0.0548	0.0634	0.172	0.43
[4]	0.0623	0.0847	0.106	0.2	0.247	0.683	0.984

CN(C)CC[C@H](CSc1ccccc1)Nc1ccc(S(=O)(=O)NC(=O)c2ccc(N3CCN(Cc4ccccc4-c4ccc(Cl)cc4)CC3)cc2)cc1[N+](=O)[O-] [ABT-737]
maximum observed lethal fraction
Settings	0.0316 µM	0.1 µM	0.316 µM	1 µM	3.16 µM	10 µM	31.6 µM
[1]	0.0704	0.0736	0.0737	0.0836	0.13	0.38	0.617
[2]	0.0733	0.076	0.0912	0.127	0.28	0.596	0.84
[3]	0.0579	0.0557	0.0559	0.0569	0.0568	0.0722	0.082
[4]	0.0571	0.0649	0.0818	0.115	0.189	0.462	0.788

CCN1CCN(Cc2ccc(Nc3ncc(F)c(-c4cc(F)c5nc(C)n(C(C)C)c5c4)n3)nc2)CC1 [Abemaciclib]
maximum observed lethal fraction
Settings	0.01 µM	0.0316 µM	0.1 µM	0.316 µM	1 µM	3.16 µM	10 µM
[1]	0.0734	0.0787	0.081	0.0922	0.161	0.257	0.739
[2]	0.0701	0.071	0.073	0.0769	0.211	0.457	0.889
[3]	0.0682	0.0681	0.0721	0.0802	0.0972	0.0964	0.339
[4]	0.0681	0.0675	0.0675	0.0855	0.376	0.314	0.851

Cc1c2oc3c(C)ccc(C(=O)N[C@@H]4C(=O)N[C@H](C(C)C)C(=O)N5CCC[C@H]5C(=O)N(C)CC(=O)N(C)[C@@H](C(C)C)C(=O)O[C@@H]4C)c3nc-2c(C(=O)N[C@@H]2C(=O)N[C@H](C(C)C)C(=O)N3CCC[C@H]3C(=O)N(C)CC(=O)N(C)[C@@H](C(C)C)C(=O)O[C@@H]2C)c(N)c1=O [Actinomycin-D]
maximum observed lethal fraction
Settings	0.001 µM	0.00316 µM	0.01 µM	0.0316 µM	0.1 µM	0.316 µM	1 µM
[1]	0.0967	0.164	0.311	0.206	0.243	0.368	0.328
[2]	0.101	0.199	0.648	0.35	0.254	0.406	0.377
[3]	0.0757	0.0754	0.0792	0.088	0.0799	0.0933	0.0822
[4]	0.0789	0.0968	0.505	0.545	0.4	0.637	0.578

COc1ccc(C[C@H]2NC[C@H](O)[C@H]2OC(C)=O)cc1 [Anisomycin]
maximum observed lethal fraction
Settings	0.316 µM	1 µM	3.16 µM	10 µM	31.6 µM	100 µM	316 µM
[1]	0.174	0.177	0.239	0.337	0.426	0.403	0.408
[2]	0.218	0.159	0.181	0.32	0.353	0.387	0.444
[3]	0.114	0.119	0.103	0.111	0.121	0.109	0.107
[4]	0.277	0.456	0.711	0.845	0.888	0.879	0.903

CC(C)C[C@H](NC(=O)[C@H](Cc1ccccc1)NC(=O)c1cnccn1)B(O)O [Bortezomib]
maximum observed lethal fraction
Settings	0.001 µM	0.00316 µM	0.01 µM	0.0316 µM	0.1 µM	0.316 µM	1 µM
[1]	0.0725	0.108	0.418	0.637	0.731	0.791	0.82
[2]	0.0699	0.0922	0.345	0.8	0.791	0.889	0.904
[3]	0.059	0.0694	0.096	0.27	0.378	0.387	0.443
[4]	0.0526	0.193	0.757	0.865	0.9	0.904	0.917

C[C@H]1CCC/C=C/[C@@H]2C[C@H](O)C[C@H]2[C@H](O)/C=C/C(=O)O1 [Brefeldin A]
maximum observed lethal fraction
Settings	0.0316 µM	0.1 µM	0.316 µM	1 µM	3.16 µM	10 µM	31.6 µM
[1]	0.168	0.257	0.333	0.321	0.29	0.411	0.389
[2]	0.218	0.387	0.628	0.709	0.77	0.793	0.86
[3]	0.0711	0.075	0.0688	0.0708	0.0703	0.0786	0.0716
[4]	0.0868	0.38	0.634	0.701	0.762	0.775	0.818

Nc1cc(C(F)(F)F)c(-c2cc(N3CCOCC3)nc(N3CCOCC3)n2)cn1 [Buparlisib]
maximum observed lethal fraction
Settings	0.0316 µM	0.1 µM	0.316 µM	1 µM	3.16 µM	10 µM	31.6 µM
[1]	0.0937	0.0916	0.0993	0.125	0.231	0.304	0.326
[2]	0.0818	0.0866	0.0955	0.176	0.287	0.349	0.374
[3]	0.0655	0.0661	0.0716	0.091	0.0979	0.11	0.116
[4]	0.0663	0.0713	0.0748	0.109	0.275	0.463	0.513

CC[C@@]1(O)C(=O)OCc2c1cc1n(c2=O)Cc2cc3ccccc3nc2-1 [Camptothecin]
maximum observed lethal fraction
Settings	0.01 µM	0.0316 µM	0.1 µM	0.316 µM	1 µM	3.16 µM	10 µM
[1]	0.0712	0.0841	0.0812	0.0849	0.107	0.295	0.328
[2]	0.0758	0.083	0.0852	0.101	0.307	0.664	0.8
[3]	0.0607	0.0659	0.0708	0.0816	0.0795	0.0879	0.0915
[4]	0.0607	0.0661	0.0732	0.0916	0.379	0.625	0.786

NC1(C(=O)N[C@@H](CCO)c2ccc(Cl)cc2)CCN(c2nc[nH]c3nccc2-3)CC1 [Capivasertib]
maximum observed lethal fraction
Settings	0.0316 µM	0.1 µM	0.316 µM	1 µM	3.16 µM	10 µM	31.6 µM
[1]	0.0937	0.0911	0.0962	0.0997	0.111	0.132	0.22
[2]	0.0788	0.0816	0.0788	0.0844	0.0929	0.108	0.236
[3]	0.0665	0.0661	0.0653	0.0697	0.074	0.078	0.0858
[4]	0.0687	0.066	0.0671	0.0702	0.0868	0.109	0.201

O=C(O)C1(C(=O)O)CCC1.[NH2-].[NH2-].[Pt+2] [Carboplatin]
maximum observed lethal fraction
Settings	0.316 µM	1 µM	3.16 µM	10 µM	31.6 µM	100 µM	316 µM
[1]	0.0634	0.0611	0.0647	0.0661	0.0674	0.0762	0.54
[2]	0.0652	0.0616	0.0672	0.0691	0.0714	0.0762	0.342
[3]	0.0602	0.0593	0.0612	0.0614	0.0671	0.0722	0.0825
[4]	0.0493	0.052	0.0533	0.0546	0.056	0.0693	0.517

From the supplement of paper PMC12406974
